One series concerns TNF-α. Conditions: read-out: Approximate IC50 for cytokine production TNF-α; human T-lymphocytes stimulated with anti-CD3/anti-CD28 beads, 24 hours; average of cultures of two donors.
For a further series, the system named is IFN-γ. Conditions: read-out: Approximate IC50 for cytokine production IFN-γ; human T-lymphocytes stimulated with anti-CD3/anti-CD28 beads, 24 hours; average of cultures of two donors.
A further series concerns IL2. Conditions: read-out: Approximate IC50 for cytokine production IL2; human T-lymphocytes stimulated with anti-CD3/anti-CD28 beads, 24 hours; average of cultures of two donors.
Series [1] deals with T-cell proliferation (T-cells isolated from mouse spleens). The conditions noted are these: read-out: IC50 MLR; C57BL/6 responder and irradiated BALB/c stimulator spleen cells, 5 days.
Procedure: Murine Mixed Lymphocyte Response (MLR) assay: This assay monitored T-cell proliferation by measurement of tritiated thymidine incorporation into DNA of T-cells isolated from mouse spleens; T-cell proliferation is directly proportional to tritium incorporation into DNA. Pooled spleen cells were prepared from three mice each of two strains: three C57BL/6 and three BALB/c mice. The C57BL/6 mice were used as the Responders (R) and BALB mice were the Stimulators (S) in the MLR. Complete medium consisted of RPMI 1640 supplemented with 25 mM HEPES, 10% heat-inactivated low background fetal bovine serum, 50 μM 2-mercatoethanol, 2 mM L-glutamine, and antibiotics.
The BALB/c spleen cells were gamma irradiated at 3000 Roentgen in a Bevill irradiator and washed once with medium to use as S cells; the stock of S cells was 1.6×10^6/mL in complete medium. The R cells were stocked at 8×10^5/mL in complete medium. Final cell densities were 2×10^5 R and 4×10^5 S per test well in a 96-well microtiter plate. Compounds were diluted from a 10 mM stock solution in DMSO into culture medium; compounds were tested at 10 concentrations between 0.001 and 30 μM (three-fold dilutions).
Background control wells contained 150 μL of medium/0.3% DMSO and 50 μL of R cells (2×10^5/well). All other wells contained 100 μL of medium/0.3% DMSO or compound (also in 0.3% DMSO), 50 μL of R cells (2×10^S/well), and 50 μL of S cells (4×10^5/well). Plates were incubated at 37° C. in 5% CO2 for 5 days, and subsequently pulsed with 1 μCi/well of 3H-thymidine for 6-18 hours. Cells were harvested, and tritium incorporation was measured using a scintillation counter.
The test system of the next series is IL4. Conditions: read-out: Approximate IC50 for cytokine production IL4; human T-lymphocytes stimulated with anti-CD3/anti-CD28 beads, 24 hours; average of cultures of two donors.
Another series concerns eyes of rabbits. The conditions noted are these: 0.05% (w/w) in an artificial tear formulation, instillation in right eyes over three days.
For series [2] the following is noted: artificial tear formulation.
Procedure: The solubilities of compounds in artificial tear formulations were determined using turbidimetric titration (Schote, et al., 2002. J Pharm Sciences 91(3):856). The different tear formulations are buffered and contain various physiological electrolytes including, sodium, potassium, phosphate, and chloride. The formulations differ primarily in the “active” ingredients that provide lubrication and viscosity.
The test system of series [3] is chorio-allantoic membranes (CAM) of fertilized chicken eggs. Conditions: for Classification: HET-CAM classification of irritation potential; for Total Score: HET-CAM, sum of scores, average across eggs.
Procedure: In this test, chorio-allantoic membranes (CAM) of fertilized chicken eggs are exposed to a solution of the test substance in sterile water. During an incubation period of approximately 5 minutes, irritancy is assessed by visual inspection of the CAM blood vessel network for haemorrhage, lysis and/or coagulation. The time of onset or appearance of each of these effects is scored numerically, the scores are summed to give a single numerical value, and an average numerical score across several eggs is obtained.
The mark [4] stands for this setting: HET-CAM score, approximately 5 minutes incubation.

Like-named read-outs stand apart in the source and are kept apart here.

Procedure for IFN-γ: (§1) Assays with human cells are used to determine if compounds I) inhibit T-cell activation (using cytokine release as a biomarker), and 2) reduce or prevent cytokine-induced pathologies.
(§2) Compounds were incubated with stimulated human T-lymphocytes in an in vitro system designed to measure cytokine production; cytokine production is indicative of T-cell activation and consequential cytokine-induced damage in vivo. […] Cells were treated in triplicate with compounds or vehicle (DMSO) in cell culture medium for 2 hours at 37 deg C. Cells were then stimulated with 5 μL of anti-CD3/anti-CD28 ExpandBeads (DynaBeads, Invitrogen 111.31) and incubated for 24 hours. Compounds were tested at three concentrations: 0.02, 0.2 and 2 μM. Untreated controls were performed for each cytokine marker. The following cytokines were quantitatively determined using specific ELISA kits, according to manufacturer instructions: IL2 (Eli-pair, Diaclone), IL4 (ImmunoTools 313.300.49), tumor necrosis factor alpha (TNFα, ImmunoTools 313.330.1), and Interferon gamma (IFN-γ) Eli-pair, Diaclone).
Procedure for IL2: as §1, §2
Procedure for IL4: as §1, §2
Procedure for TNF-α: as §1, §2
Procedure for eyes of rabbits: The compounds of the invention were evaluated for tolerability upon instillation in the eyes of rabbits over a three day test period. Rabbits receive five instillations within 20 minutes of fifty microliters of a solution of the test substance in vehicle once on Day 1, twice on Day 2 and four times on Day 3 in the right eyes. Evaluation of ocular irritancy was performed using the Draize scale (Draize et al. J. Pharmacol. Exp. Ther. 1944. 82: 377).

In general, IC50 refers to the concentration that gives 50% inhibition. On to “3-[2-(morpholin-4-yl)ethoxy]cyclosporin [F]”, for which the IC50 was about 200 nM in the series with TNF-α; about 200 nM in the series with IFN-γ; about 20 nM with IL2; 500 nM in series [1]; about 200 nM with IL4.

`C/C=C/C[C@@H](C)[C@@H](O)[C@H]1C(=O)N[C@@H](CC)C(=O)N(C)C(OCCN(C)C)C(=O)N(C)[C@@H](CC(C)C)C(=O)N[C@@H](C(C)C)C(=O)N(C)[C@@H](CC(C)C)C(=O)N[C@@H](C)C(=O)N[C@H](C)C(=O)N(C)[C@@H](CC(C)C)C(=O)N(C)[C@@H](CC(C)C)C(=O)N(C)[C@@H](C(C)C)C(=O)N1C` (stereo partly shown) [Compound A, 3-[2-(N,N-dimethylamino)ethoxy]cyclosporin]: the “Ocular tolerability (Draize scale)” value in the series on eyes of rabbits was “very well tolerated”. Also, the “Minimum Solubility” value in series [2] (pH 6.2, Polyethylene glycol 400 (1%), Polyvinyl alcohol (1%)) is 151 µM; in series [2] (pH 6.7 (adjusted with HCl from 7.4), Dextran 70 (0.1%), Hydroxypropyl methyl-cellulose 2910 (0.3%)), 350 µM; in series [2] (pH 6.8, Carboxymethylcellulose sodium (0.5%)), 130 µM; in series [2] (pH 7.3, Propylene Glycol (0.95%), Glycerin (0.3%)) it was 117 µM; in series [2] (pH 7.4, Dextran 70 (0.1%), Hydroxypropyl methyl-cellulose 2910 (0.3%)) it was 141 µM. Moreover, the Classification entry in series [3] is recorded as “Slightly irritant”. The Lysis in series [3] (setting [4]) is reported as 3.5. The “Total Score” value in series [3] was 3.5. Also, the IC50 is about 2000 nM in the series on TNF-α, about 2000 nM in the series with IFN-γ, 200 nM in series [1] and about 2000 nM with IL4.

For `CC=CCC(C)C(O)C1C(=O)NC(CC)C(=O)N(C)C(OCCN2CCCCC2)C(=O)N(C)C(CC(C)C)C(=O)NC(C(C)C)C(=O)N(C)C(CC(C)C)C(=O)NC(C)C(=O)NC(C)C(=O)N(C)C(CC(C)C)C(=O)N(C)C(CC(C)C)C(=O)N(C)C(C(C)C)C(=O)N1C` (stereo not shown) [D, 3-[2-(piperidin-1-yl)ethoxy]cyclosporin], in series [3], the Classification result is reported as “Slightly irritant”. This compound displayed a Coagulation in series [3] (setting [4]) of 0. Further, the Haemorhage in series [3] (setting [4]) amounted to 0. For the same compound, the Lysis in series [3] (setting [4]) was determined as 3. In addition, the “Total Score” value in series [3] was 3.0. Further, the half-inhibitory concentration (IC50) in the series on TNF-α is about 2000 nM; in the series on IFN-γ, about 1000 nM; in the series on IL2, about 1000 nM; in series [1], 200 nM; in the series with IL4, about 2000 nM.
